Assay results: ChEMBL document CHEMBL3098003, “Structure-based design of 2-aminopyridine oxazolidinones as potent and selective tankyrase inhibitors” (ACS Med Chem Lett, 2013)
Activity calls are given as the source filed them. The rule behind the calls is not given here.

Assays:
[1] = Intrinsic clearance in rat liver microsomes; format: ADME; details: read-out: CLH
[2] = Terminal plasma concentration in athymic nude mouse xenografted with human DLD1 cells at 200 mg/kg, po bid for 3 days; format: ADME, organism-based, DLD-1; set-up: dose 200 mg/kg, route oral; details: read-out: Cp(T)
[3] = molecular target: High affinity nerve growth factor receptor (Homo sapiens) (UniProt P04629); test: Inhibition of NTRK1 (unknown origin) at 1 uM after 1 hr
High affinity nerve growth factor receptor (Homo sapiens), sequence (P04629 33-796 limits assumed): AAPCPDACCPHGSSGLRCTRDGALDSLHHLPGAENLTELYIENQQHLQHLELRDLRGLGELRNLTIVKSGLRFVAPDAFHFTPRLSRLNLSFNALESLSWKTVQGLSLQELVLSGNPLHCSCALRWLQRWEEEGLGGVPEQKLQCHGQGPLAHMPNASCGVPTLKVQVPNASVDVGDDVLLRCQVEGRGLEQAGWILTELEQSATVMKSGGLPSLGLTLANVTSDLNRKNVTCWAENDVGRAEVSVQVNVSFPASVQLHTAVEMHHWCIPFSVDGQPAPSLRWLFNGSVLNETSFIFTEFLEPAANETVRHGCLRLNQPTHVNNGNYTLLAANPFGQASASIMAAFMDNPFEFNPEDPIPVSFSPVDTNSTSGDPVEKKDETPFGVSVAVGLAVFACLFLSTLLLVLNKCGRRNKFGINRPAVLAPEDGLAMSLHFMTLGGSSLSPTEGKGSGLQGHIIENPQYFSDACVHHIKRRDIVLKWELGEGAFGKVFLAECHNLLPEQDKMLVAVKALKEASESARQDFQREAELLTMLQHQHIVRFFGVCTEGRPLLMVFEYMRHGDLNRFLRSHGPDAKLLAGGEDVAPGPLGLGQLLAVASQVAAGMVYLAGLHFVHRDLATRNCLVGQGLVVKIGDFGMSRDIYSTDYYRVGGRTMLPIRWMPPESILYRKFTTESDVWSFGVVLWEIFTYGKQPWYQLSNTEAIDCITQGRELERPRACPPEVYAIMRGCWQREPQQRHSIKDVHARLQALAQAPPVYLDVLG

Mus musculus [4] = test: In vivo inhibition of tankyrase-mediated TCF7 gene expression in tumor of athymic nude mouse xenografted with human DLD1 cells at 200 mg/kg, po bid for 3 days by STF assay; format: functional, organism-based; set-up: dose 200 mg/kg; details: DLD-1
Bile salt export pump = Bile salt export pump (Homo sapiens, UniProt O95342); test: Inhibition of BSEP (unknown origin)
Bile salt export pump, sequence (O95342 whole entry): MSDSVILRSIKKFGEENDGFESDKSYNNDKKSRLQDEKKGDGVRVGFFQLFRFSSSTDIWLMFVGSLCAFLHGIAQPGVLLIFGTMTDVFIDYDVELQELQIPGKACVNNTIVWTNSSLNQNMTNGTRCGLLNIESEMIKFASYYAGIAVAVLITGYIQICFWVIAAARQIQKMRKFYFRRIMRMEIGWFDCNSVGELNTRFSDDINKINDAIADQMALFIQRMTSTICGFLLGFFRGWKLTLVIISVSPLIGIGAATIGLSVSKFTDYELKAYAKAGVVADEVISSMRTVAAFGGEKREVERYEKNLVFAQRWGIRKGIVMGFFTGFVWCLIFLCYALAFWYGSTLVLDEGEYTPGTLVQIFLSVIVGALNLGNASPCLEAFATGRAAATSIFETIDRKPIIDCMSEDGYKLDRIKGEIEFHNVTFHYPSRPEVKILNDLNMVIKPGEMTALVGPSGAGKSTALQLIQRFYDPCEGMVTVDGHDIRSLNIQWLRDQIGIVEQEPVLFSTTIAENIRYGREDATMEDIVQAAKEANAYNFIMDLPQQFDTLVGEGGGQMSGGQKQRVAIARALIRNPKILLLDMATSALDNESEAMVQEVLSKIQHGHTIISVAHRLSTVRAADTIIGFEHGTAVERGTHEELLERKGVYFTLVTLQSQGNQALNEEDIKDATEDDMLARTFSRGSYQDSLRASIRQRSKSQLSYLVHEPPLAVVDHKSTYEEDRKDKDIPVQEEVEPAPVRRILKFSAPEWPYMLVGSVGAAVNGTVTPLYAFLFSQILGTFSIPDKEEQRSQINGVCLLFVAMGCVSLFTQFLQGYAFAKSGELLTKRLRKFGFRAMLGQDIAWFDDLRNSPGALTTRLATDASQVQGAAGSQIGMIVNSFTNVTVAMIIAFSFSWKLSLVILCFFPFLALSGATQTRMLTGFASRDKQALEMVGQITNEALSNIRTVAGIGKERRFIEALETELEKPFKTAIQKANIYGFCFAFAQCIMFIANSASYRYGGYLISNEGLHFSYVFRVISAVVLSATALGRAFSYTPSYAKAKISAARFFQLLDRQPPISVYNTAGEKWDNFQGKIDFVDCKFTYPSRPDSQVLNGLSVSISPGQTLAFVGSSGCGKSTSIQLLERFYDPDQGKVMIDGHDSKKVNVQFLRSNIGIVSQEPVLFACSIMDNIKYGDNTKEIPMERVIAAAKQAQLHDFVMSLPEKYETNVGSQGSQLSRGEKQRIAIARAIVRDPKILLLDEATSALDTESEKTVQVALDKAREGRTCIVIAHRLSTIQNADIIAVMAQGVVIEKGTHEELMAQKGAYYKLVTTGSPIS

[5] = molecular target: 5-hydroxytryptamine receptor 1A (Homo sapiens, UniProt P08908); test: Binding affinity to 5-HT1A receptor (unknown origin)
5-hydroxytryptamine receptor 1A, sequence (P08908 whole entry): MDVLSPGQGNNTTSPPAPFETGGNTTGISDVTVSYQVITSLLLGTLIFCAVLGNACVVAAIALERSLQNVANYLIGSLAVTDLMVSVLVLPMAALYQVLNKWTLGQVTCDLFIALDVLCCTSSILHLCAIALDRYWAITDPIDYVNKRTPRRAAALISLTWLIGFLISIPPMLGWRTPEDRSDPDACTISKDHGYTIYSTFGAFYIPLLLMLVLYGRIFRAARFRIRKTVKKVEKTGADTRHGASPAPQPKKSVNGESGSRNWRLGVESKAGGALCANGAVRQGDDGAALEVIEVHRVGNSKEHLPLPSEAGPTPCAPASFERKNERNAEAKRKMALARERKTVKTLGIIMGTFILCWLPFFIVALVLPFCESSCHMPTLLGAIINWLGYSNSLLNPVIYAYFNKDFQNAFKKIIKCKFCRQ

[6] = Terminal plasma concentration in athymic nude mouse xenografted with human DLD1 cells at 50 mg/kg, po bid for 3 days; format: ADME, organism-based, DLD-1; set-up: dose 50 mg/kg, route oral; details: read-out: Cp(T)
[7] = molecular target: Somatostatin receptor type 4 (Homo sapiens, UniProt P31391); test: Binding affinity to SST4 receptor (unknown origin)
Somatostatin receptor type 4, sequence (P31391 whole entry): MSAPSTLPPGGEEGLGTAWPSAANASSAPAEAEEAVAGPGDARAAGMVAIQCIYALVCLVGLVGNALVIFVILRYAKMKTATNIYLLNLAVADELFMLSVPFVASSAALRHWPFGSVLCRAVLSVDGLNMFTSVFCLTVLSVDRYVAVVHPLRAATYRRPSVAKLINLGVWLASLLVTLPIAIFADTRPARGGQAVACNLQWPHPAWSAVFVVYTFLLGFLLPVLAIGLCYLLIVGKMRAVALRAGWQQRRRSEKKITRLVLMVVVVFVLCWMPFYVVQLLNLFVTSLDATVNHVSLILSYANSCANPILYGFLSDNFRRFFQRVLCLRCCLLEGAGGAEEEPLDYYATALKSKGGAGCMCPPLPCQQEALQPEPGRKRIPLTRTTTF

[8] = molecular target: Beta-1 adrenergic receptor (Homo sapiens, UniProt P08588); test: Binding affinity to adrenergic beta1 receptor (unknown origin)
Beta-1 adrenergic receptor, sequence (P08588 whole entry): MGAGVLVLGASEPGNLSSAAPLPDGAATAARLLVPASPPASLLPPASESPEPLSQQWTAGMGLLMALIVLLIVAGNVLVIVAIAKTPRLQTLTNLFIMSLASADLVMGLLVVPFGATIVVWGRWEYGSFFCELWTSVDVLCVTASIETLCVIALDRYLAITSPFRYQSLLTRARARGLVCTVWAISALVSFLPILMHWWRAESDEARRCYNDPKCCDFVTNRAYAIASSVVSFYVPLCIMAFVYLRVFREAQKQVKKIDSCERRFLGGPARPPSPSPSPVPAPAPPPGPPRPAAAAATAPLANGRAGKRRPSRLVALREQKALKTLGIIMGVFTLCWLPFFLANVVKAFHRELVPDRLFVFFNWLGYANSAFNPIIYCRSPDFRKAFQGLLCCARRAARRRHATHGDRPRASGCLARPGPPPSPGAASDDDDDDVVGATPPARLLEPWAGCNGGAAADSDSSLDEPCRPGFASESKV

Mus musculus [9] = test: Toxicity in athymic nude mouse assessed as lethargy at 100 mg/kg, po bid for 8 days; format: organism-based; set-up: dose 100 mg/kg, route oral; details: in vivo, 192 h
Substance-P receptor = Substance-P receptor (Homo sapiens, UniProt P25103); test: Binding affinity to NK1 receptor (unknown origin)
Substance-P receptor, sequence (P25103 whole entry): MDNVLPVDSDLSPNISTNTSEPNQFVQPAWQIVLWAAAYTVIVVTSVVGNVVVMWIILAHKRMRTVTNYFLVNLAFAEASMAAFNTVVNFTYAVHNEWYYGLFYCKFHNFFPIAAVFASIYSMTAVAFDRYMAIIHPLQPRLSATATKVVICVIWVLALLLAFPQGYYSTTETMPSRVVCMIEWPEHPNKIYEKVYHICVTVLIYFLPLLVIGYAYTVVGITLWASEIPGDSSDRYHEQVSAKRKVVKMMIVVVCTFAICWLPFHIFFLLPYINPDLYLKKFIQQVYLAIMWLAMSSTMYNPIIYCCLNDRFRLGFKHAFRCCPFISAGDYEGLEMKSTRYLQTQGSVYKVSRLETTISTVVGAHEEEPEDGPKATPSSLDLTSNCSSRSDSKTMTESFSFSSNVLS

Mus musculus [10] = test: Toxicity in athymic nude mouse assessed as cold at 100 mg/kg, po bid for 8 days; format: organism-based; set-up: dose 100 mg/kg, route oral; details: in vivo, 192 h
Mu-type opioid receptor = Mu-type opioid receptor (Homo sapiens, UniProt P35372); test: Binding affinity to mu opioid receptor (unknown origin)
Mu-type opioid receptor, sequence (P35372 whole entry): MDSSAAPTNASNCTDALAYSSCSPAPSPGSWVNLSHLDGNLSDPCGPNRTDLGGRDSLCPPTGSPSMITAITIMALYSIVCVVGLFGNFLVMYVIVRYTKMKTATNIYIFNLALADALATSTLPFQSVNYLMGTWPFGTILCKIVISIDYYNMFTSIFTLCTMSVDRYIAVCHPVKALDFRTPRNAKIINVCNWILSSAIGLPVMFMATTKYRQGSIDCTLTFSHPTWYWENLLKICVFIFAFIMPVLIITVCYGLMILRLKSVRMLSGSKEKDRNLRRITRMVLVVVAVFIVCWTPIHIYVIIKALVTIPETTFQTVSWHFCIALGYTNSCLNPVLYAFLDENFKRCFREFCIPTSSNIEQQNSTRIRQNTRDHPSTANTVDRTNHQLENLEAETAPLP

microsomal CLint [1] | concentration at 72 h [2] | Structure (SMILES) | inhibition [3] | inhibition (Mus musculus [4]) | IC50 (Bile salt export pump) | IC50 [5] | concentration at 72 h [6] | IC50 [7] | IC50 [8] | Activity (Mus musculus [9]) | IC50 (Substance-P receptor) | Activity (Mus musculus [10]) | IC50 (Mu-type opioid receptor)
48 µL/min/mg | 22.1 µM | CC1(C)OC(=O)N(c2ccc(-c3cnc(N)c(-c4ncccn4)c3)cc2)[C@H]1c1ccccc1 | inactive | Active | – | – | – | – | – | – | – | – | –
– | – | CC1(C)OC(=O)N([C@H]2CC[C@H](c3cnc(N)c(-c4ncccn4)c3)CC2)[C@H]1c1ccccc1 | inactive | – | 11 µM | > 48.5 µM | 0.12 µM | > 48.5 µM | > 48.5 µM | Toxic | > 48.5 µM | Toxic | > 48.5 µM
